{"source": "patent US20230000888A1", "about": "“NAD-PRECURSORS AND DIETARY RESTRICTION FOR TREATING AGE RELATED MEDICAL CONDITIONS” (Leibniz-Institut für Alternsforschung - …, priority 2019, published 2023)", "key": {"[1]": {"test_system": "HSCs (CD150+CD34−Flt3−LSK)", "assay": "Culture of freshly isolated HSCs with metabolic inhibitors, total cell numbers by FACS after 5 days", "format": "cell-based, mice", "details": "for cell numbers 5 days after initiation of the treatment, HSCs from old mice compared to HSCs from young mice: 2-DG 3 mM, Oligomycin 1.8 nM, 1,500 HSCs per well, FIG. 6C; for cell numbers 5 days after induction of the inhibitor treatment, HSCs from young mice / sensitivity to respond with a reduction in cell growth, HSCs from old mice: inhibitor of mitochondrial nutrient uptake 9 μM, FIG. 6D; for sensitivity to respond with a reduction in cell growth, HSCs from old mice: compared to young", "method": "(C-E) One-thousand-five-hundred, freshly isolated HSCs (CD150^+CD34^−Flt3^−LSK) from young or old mice were cultured per well (96-well plate). (C) HSCs were exposed to 2-DG (3 mM), Oligomycin (=Oligo, 1.8 nM), or DMSO as control (=Con). Total cell numbers per well were determined by FACS after 5 days. Young mice (4 months, n=4) and old mice (24 months, n=6). Data are normally distributed (Shapiro-Wilk test). P-values were calculated by t-test with Welch's correction. Error bars depict SD. (D) HSCs were cultured with inhibitors that block the mitochondrial uptake of […] (BPTES, 9 μM), fatty acids (Etomoxir, 9 μM), or pyruvate (UK5099, 9 μM). Total cell numbers were counted by FACS after 5 days. Young mice (3-4 months, n=5) and old mice (26 months, n=4). Data are normally distributed (Shapiro-Wilk test). P-values were calculated by unpaired t-test with Welch's correction. (E) HSCs were exposed to a combination of 3 inhibitors (3 inhibitors=3I, same as in D) at a concentration of 6 μM (each) or to DMSO (Con). Young mice (2-3 months, n=5) and old mice (30-31 months, n=5). Data are normally distributed (Shapiro-Wilk test). P-values were calculated using 2-way ANOVA with Tukey's multiple comparisons test. Error bars depict SD.\nTo test the functional relevance of these aging-associated changes in the proteome of HSCs, freshly isolated HSCs were exposed to treatment with oligomycin (an inhibitor of mitochondrial oxidative phosphorylation) or to treatment with 2-Deoxy-D-glucose (2-DG) in culture. […] Similar results were obtained after inhibition of nutrient influx into mitochondria. In this experiment, freshly isolated HSCs were incubated with compounds that inhibit the influx of nutrients into mitochondria (BPTES for glutamine, Etomoxir for fatty acids, or UK5099 for pyruvate).\nFor testing the response of HSPCs to the blocking of glycolysis or mitochondrial ATP synthesis, 2-DG (Sigma, D8375) or oligomycin A (Sigma, 75351) were used. For the inhibition of nutrient uptake into mitochondria, three inhibitors (3I) were used. BPTES (Sigma, SML0601) blocks […] uptake, Etomoxir (Sigma E1905) blocks Fatty acids uptake, and UK5099 (Sigma PZ0160) blocks pyruvate uptake. The final concentration of each inhibitor in the culture medium is 6 μM. Same amount of DMSO was used in the medium as control. For determination of cell number after NR treatment 500 HSCs from young (2-3 months) and old (22-24 months) were pre-incubated either with 1 mM NR (provided by Prof. Johan Auwerx Lab) or DMSO as control for 2 days followed by 2 days treatment with the inhibitors (BPTES, Etomoxir and UK5099, 6 μM each) or same amount of DMSO as control. The cells were then analyzed by BD LSR fortessa."}, "CMPs": {"test_system": "CMPs", "details": "FIG. 8H", "description": "(H) Young, 3-4-month old mice were treated one week with two intraperitoneal injections of FCCP/week (high-dose: 4.8 mg/Kg or low-dose: 1.2 mg/Kg) or with vehicle control (10% DMSO) (n=4 mice per group). One week after the start of the treatment, CMPs were freshly isolated and exposed for 12h in culture to a combination of 3 inhibitors of mitochondrial nutrient uptake (31: 6 μM of each BPTES, Etomoxir, and UK5099) or DMSO control (Con). Statistical analysis: The data were normally distributed (Shapiro-Wilk) and p-values were calculated by 2-way ANOVA with Tukey's multiple comparisons test. Error bars depict SD.\nTo experimentally test this conclusion, CMPs from FCCP-treated vs. control treated young mice (see above) were exposed for 12 hours to 3I-treatment in culture and adaptive response in OCR were measured by Seahorse.\nYoung C57BL/6 wild type mice (3 months) male mice were weighed before the injection. The mice were then injected intraperitoneally with low dose (1.2 mg/Kg), high dose (4.82 mg/Kg) of FCCP, or 10% DMSO as control (all drugs were dissolved in 10% DMSO. The drug concentration was adjusted so that the final volume of injection of each injection is 150 pL/mouse. The mice were injected at day 1 and day 4 after weighing. Then they were analyzed at day 6. […]"}, "[2]": {"test_system": "HSCs (CD150+CD34−Flt3−LSK)", "details": "young mice, two i.p. injections (day-1, day-4), 1.2 or 4.8 mg/Kg, 1 week; FIG. 6F", "description": "(F,G) Young, 3-4 month old mice were treated within one week with two intraperitoneal injections of FCCP on day-1 and day-4 (high-dose: 4.8 mg/Kg or low-dose: 1.2 mg/Kg) or with vehicle control (10% DMSO) (n=4 mice per group). One week after the start of the treatment (day-7), total bone marrow cells were analyzed and used for culture experiments. […] (F,G) Data are normally distributed (Shapiro-Wilk test) and p-values were calculated using one-way ANOVA (F) and two-way ANOVA (G) with Tukey's multiple comparisons test. Error bars depict SD.\n(§2) To experimentally test whether mitochondrial dysfunction would cause an abrogation of adaptive responses of HSCs to reduction in nutrient availability, young mice were exposed the mitochondrial uncoupler FCCP or vehicle (two injections: day-1 and day-4). One week after the first injection, the mice were analyzed and freshly isolated HSCs of FCCP-treated vs. DMSO-treated mice were exposed in culture to the 3 above described inhibitors of mitochondrial nutrient uptake—a combination of BPTES, Etomoxir, and UK5099, referred to from here on as “3I”.\nYoung C57BL/6 wild type mice (3 months) male mice were weighed before the injection. […]"}, "[3]": {"test_system": "HSCs (CD150+CD34−Flt3−LSK)", "assay": "Culture of HSCs from FCCP- or vehicle-treated mice with 3I-treatment, total cell numbers", "format": "cell-based", "details": "HSCs from high-dose FCCP-treated young mice; FIG. 6G", "description": "(F,G) Young, 3-4 month old mice were treated within one week with two intraperitoneal injections of FCCP on day-1 and day-4 (high-dose: 4.8 mg/Kg or low-dose: 1.2 mg/Kg) or with vehicle control (10% DMSO) (n=4 mice per group). One week after the start of the treatment (day-7), total bone marrow cells were analyzed and used for culture experiments. […] (G) 2,500 freshly isolated HSCs from vehicle-treated of high-dose FCCP-treated animals were cultured and exposed to 3I-treatment (same concentration as in FIG. 6E) or to vehicle-treatment (Con). The histogram depicts the total cell numbers at 4 days after culture initiation. (F,G) Data are normally distributed (Shapiro-Wilk test) and p-values were calculated using one-way ANOVA (F) and two-way ANOVA (G) with Tukey's multiple comparisons test. Error bars depict SD.\nas §2"}, "[4]": {"test_system": "Ldha, Pdha, Nrf1 and Hif1a mRNA in HSCs", "assay": "qPCR of Ldha, Pdha, Nrf1, Hif1a in HSCs after oligomycin-treatment", "format": "cell-based, mice", "details": "oligomycin 0.6 μM, 3 hours", "method": "FIG. 8. (A,B) Freshly isolated HSCs (CD150^+CD34^−Flt3^−LSK) from young mice (2-3 months, n=4) and old mice (27-30 months, n=6) were exposed to oligomycin-treatment (0.6 μM) or vehicle control (0.1% DMSO) for 3 hours in culture (7000 HSCs per well of a 96-well plate). Gene expressions (relative to β-actin) of (A) Ldha, (B) Pdha were analyzed by qPCR. […] P-values were calculated on transformed data by unpaired t-test with Welch's correction. Error bars depict SD.\n(E,F) The same HSC cultures that were described in FIG. 8A were used to determine the mRNA expression levels of (E) Nrf1 and (F) Hif1a relative to β-actin by qPCR. N=4 for young groups, n=6 for old groups. One outlier (Grubbs test) was removed for the control groups). […] Error bars depict SD.\n(§1) To further test this hypothesis, we analyzed the adaptability of mitochondrial metabolic pathways in freshly isolated HSPCs from young and old mice. First, we exposed freshly isolated HSCs to Oligomycin or to control treatment and we analyzed the RNA expression of Lactate dehydrogenase A (Ldha) and Pyruvate dehydrogenase A (Pdha) 3 hours after isolation and drug treatment. […] Second, we measured the activity of LDH and PDH in freshly isolated HSCs that were exposed for 20 hours to Oligomycin. […] Again HSCs from old mice were irresponsive (FIG. 8C,D). […] Third, we analyzed OCR in freshly isolated CMPs that were treated for 12 hours with inhibitors of mitochondrial nutrient flow (3I) compared to control treatment. As outlined above, CMPs were used for these respirometry experiments, which need higher cell numbers and thus cannot be conducted on HSCs. […] This increase in OCR in young compared to old CMPs was different from freshly isolated MPs (FIG. 3D) likely due to culture induced activation of OCR in young CMPs, which was impaired in old CMPs by pre-existing, chronic mitochondrial dysfunction."}, "[5]": {"test_system": "LDH and PDH activity in HSCs", "assay": "Activity of LDH and PDH in cultured HSCs after oligomycin-treatment", "format": "cell-based, mice", "details": "oligomycin 2.4 nM, 20 hours", "method": "(C,D) Freshly isolated HSCs (CD150^+CD34^−Flt3^−LSK) from young mice (3-4 months, n=7) and old mice (24-25 months, n=7) were cultured overnight (7,000 HSCs per well of a 96-well plate). Eighteen hours later, HSCs were exposed to oligomycin-treatment (2.4 nM) or vehicle control (0.04% DMSO). After 20h treatment, 1,000 cells from the cultures were isolated by FACS to analyze the activity of (C) LDH and (D) PDH. The histograms depict the data scaled to the average of young, control-treated HSCs set to 1. Data are normally distributed (Shapiro-Wilk test). P-values were calculated by two-way ANOVA with Tukey's multiple comparison tests. Error bars depict SD.\nas §1"}}}
{"smiles": "O=CC[C@@H](O)[C@H](O)[C@H](O)CO", "note": "[2-DG, 2-Deoxy-D-glucose]", "values": [{"measurement": "cell numbers 5 days after initiation of the treatment, HSCs from old mice compared to HSCs from young mice", "setting": "[1]", "result": "stronger reduction in cell numbers"}]}
{"smiles": "O=C(Cc1ccccc1)Nc1nnc(CCSCCc2nnc(NC(=O)Cc3ccccc3)s2)s1", "note": "[BPTES]", "values": [{"measurement": "cell numbers 5 days after induction of the inhibitor treatment, HSCs from young mice", "setting": "[1]", "result": "strong reduction in cell numbers"}, {"measurement": "sensitivity to respond with a reduction in cell growth, HSCs from old mice", "setting": "[1]", "result": "significantly reduced"}]}
{"smiles": "CCOC(=O)[C@@]1(CCCCCCOc2ccc(Cl)cc2)CO1", "note": "[Etomoxir]", "values": [{"measurement": "cell numbers 5 days after induction of the inhibitor treatment, HSCs from young mice", "setting": "[1]", "result": "strong reduction in cell numbers"}, {"measurement": "sensitivity to respond with a reduction in cell growth, HSCs from old mice", "setting": "[1]", "result": "significantly reduced"}]}
{"smiles": "N#CC(C#N)=NNc1ccc(OC(F)(F)F)cc1", "note": "[FCCP]", "values": [{"measurement": "responsiveness of CMPs to reduce OCRs in response to 3I-treatment in culture", "setting": "CMPs; CMPs from FCCP-treated young mice, 3I 6 μM each, 12 h", "result": "dose dependent loss in the responsiveness"}, {"measurement": "OCR of freshly isolated CMPs", "setting": "CMPs; in vivo pre-treatment of young mice with FCCP 1.2 or 4.8 mg/Kg", "result": "dose dependent reduction in the OCR"}, {"measurement": "number of phenotypic HSCs in bone marrow", "setting": "[2]", "result": "dose dependent increase in the number of phenotypic HSCs in bone marrow"}, {"measurement": "response of HSCs to 3I-treatment by reduction in cell expansion", "setting": "[3]", "result": "complete abrogation in responding to 3I-treatment"}]}
{"smiles": "N#C/C(=C\\c1cn(-c2ccccc2)c2ccccc12)C(=O)O", "note": "[UK5099]", "values": [{"measurement": "cell numbers 5 days after induction of the inhibitor treatment, HSCs from young mice", "setting": "[1]", "result": "strong reduction in cell numbers"}, {"measurement": "sensitivity to respond with a reduction in cell growth, HSCs from old mice", "setting": "[1]", "result": "significantly reduced"}]}
{"smiles": "CC[C@H]1/C=C/C=C/C[C@@H](C)[C@H](O)[C@@](C)(O)C(=O)[C@@H](C)[C@H](O)[C@@H](C)C(=O)[C@@H](C)[C@H](O)[C@@H](C)/C=C/C(=O)O[C@@H]2[C@H](C)[C@H](CC1)O[C@]1(CC[C@H](C)[C@H](C[C@@H](C)O)O1)[C@H]2C", "note": "[oligomycin, oligomycin A]", "values": [{"measurement": "Ldha and Pdha RNA expression", "setting": "[4]; HSCs from old mice, FIG. 8A,B", "result": "irresponsive"}, {"measurement": "Ldha RNA expression", "setting": "[4]; HSCs from young mice, FIG. 8A", "result": "significant suppression of Ldha expression"}, {"measurement": "Pdha RNA expression", "setting": "[4]; HSCs from young mice, FIG. 8B", "result": "concomitant increase in Pdha expression"}, {"measurement": "cell numbers 5 days after initiation of the treatment, HSCs from old mice compared to HSCs from young mice", "setting": "[1]", "result": "less responsive to reduce cell growth"}, {"measurement": "LDH and PDH activity", "setting": "[5]; HSCs from old mice, FIG. 8C,D", "result": "irresponsive"}, {"measurement": "LDH activity", "setting": "[5]; HSCs from young mice, FIG. 8C", "result": "reduction in LDH activity"}, {"measurement": "PDH activity", "setting": "[5]; HSCs from young mice, FIG. 8D", "result": "PDH activity was maintained"}]}
